Measured values as given in patent US20130345218A1 (Vertex Pharmaceuticals Incorporated, priority 2010, published 2013).
Read-outs that look alike come from different tables or passages of the source.

Key:
[1] = tested on: influenza A virus (A/PR/8/34); experiment: microbe, parasite or virus in culture; assay type: cell-based; conditions: mean IC50 (mean all), MDCK cells, A/PR/8/34, 72 hours, read-out: Flu, MDCK IC50
[2] = tested on: influenza A virus (A/PR/8/34) minus-strand viral RNA; experiment: microbe, parasite or virus in culture; assay type: cell-based; conditions: mean EC50 (mean all), viral RNA by bDNA, read-out: bDNA EC50
[3] = Influenza A virus, PR/8, MDCK, 72 h

Row | Compound | IC50 [1] | EC50 [2] | IC50 [1, 3] | EC50 ([2]; Influenza A virus, PR/8)
1 | 3-(2-(5-fluoro-1H-pyrrolo[2,3-b]pyridin-3-yl)pyridin-4-ylamino)bicyclo[2.2.2]octane-2-carboxylic acid [Compound I-49] | < 3.3 µM | < 3.3 µM | – | –
2 | O=C(O)[C@H]1C2CCC(CC2)[C@@H]1Nc1cncc(-c2c[nH]c3ncc(F)cc23)n1 (mixture of isomers) [Compound I-38] | – | – | < 3.3 µM | < 3.3 µM
3 | O=C(O)[C@H]1C2CCC(CC2)[C@@H]1Nc1ncc(F)c(-c2c[nH]c3ncc(F)cc23)n1 (racemic) [Compound I-29, (+/−) trans-3-((5-fluoro-4-(5-fluoro-1H-pyrrolo[2,3-b]pyridin-3-yl)pyrimidin-2-yl)amino)bicyclo[2.2.2]octane-2-carboxylic acid] | – | – | < 3.3 µM | < 3.3 µM
4 | N#Cc1cc(F)c(N[C@H]2C3CCC(CC3)[C@@H]2C(=O)O)nc1-c1c[nH]c2ncc(F)cc12 (racemic) [Compound I-30] | – | – | < 3.3 µM | < 3.3 µM
5 | O=C(O)[C@H]1C2CCC(CC2)[C@@H]1Nc1nc(-c2c[nH]c3ncc(F)cc23)ccc1F (racemic) [Compound I-35, (+/−) 3-(3-fluoro-6-(5-fluoro-1H-pyrrolo[2,3-b]pyridin-3-yl)pyridin-2-ylamino)bicyclo[2.2.2]octane-2-carboxylic acid] | – | – | < 3.3 µM | < 3.3 µM
6 | O=C(O)[C@H]1C2CCC(CC2)[C@@H]1Nc1cc(C(F)(F)F)cc(-c2c[nH]c3ncc(F)cc23)n1 (racemic) [Compound I-37, (+/−)-trans-3-((6-(5-fluoro-1H-pyrrolo[2,3-b]pyridin-3-yl)-4-(trifluoro-methyl)pyridin-2-yl)amino)bicyclo[2.2.2]octane-2-carboxylic acid] | – | – | < 3.3 µM | < 3.3 µM
7 | N#Cc1cnc(N[C@@H]2C3CCC(CC3)[C@H]2C(=O)O)nc1-c1c[nH]c2ncc(C(F)(F)F)cc12 (racemic) [Compound I-39, (+/−)-trans 3-((5-cyano-4-(5-(trifluoromethyl)-1H-pyrrolo[2,3-b]pyridin-3-yl)pyrimidin-2-yl)amino)bicyclo[2.2.2]octane-2-carboxylic acid] | – | – | < 3.3 µM | < 3.3 µM
8 | O=C(O)C1C2CCC(CC2)C1Nc1cnnc(-c2c[nH]c3ncc(F)cc23)n1 (racemic) [Compound I-42, (+/−)-3-[[3-(5-fluoro-1H-pyrrolo[2,3-b]pyridin-3-yl)-1,2,4-triazin-5-yl]amino]bicyclo[2.2.2]octane-2-carboxylic acid] | – | – | < 3.3 µM | < 3.3 µM
9 | O=C(O)[C@H]1C2CCC(CC2)[C@@H]1Nc1nc(Cl)nc(-c2c[nH]c3ncc(F)cc23)n1 (racemic) [Compound I-44, (+/−)-trans-3-(4-chloro-6-(5-fluoro-1H-pyrrolo[2,3-b]pyridin-3-yl)-1,3,5-triazin-2-ylamino)bicyclo[2.2.2]octane-2-carboxylic acid] | – | – | < 3.3 µM | < 3.3 µM
10 | O=C(O)[C@H]1C2CCC(CC2)[C@@H]1Nc1cc(-c2c[nH]c3ncc(F)cc23)ncc1F (racemic) [Compound I-50, (+/−)-(2,3)-trans-3-((5-fluoro-2-(5-fluoro-1H-pyrrolo[2,3-b]pyridin-3-yl)pyridin-4-yl)amino)bicyclo[2.2.2]octane-2-carboxylic acid] | – | – | < 3.3 µM | < 3.3 µM
11 | N#Cc1cc(F)c(NC2C3CCC(CC3)C2C(=O)O)cc1-c1c[nH]c2ncc(F)cc12 (racemic) [Compound I-51, (+/−)-3-((4-cyano-2-fluoro-5-(5-fluoro-1H-pyrrolo[2,3-b]pyridin-3-yl)phenyl)amino)bicyclo[2.2.2]octane-2-carboxylic acid] | – | – | < 3.3 µM | < 3.3 µM
12 | N#Cc1cnc(N[C@@H]2CCC[C@H](NC(=O)C3CC3)C2)nc1-c1c[nH]c2ncc(C(F)(F)F)cc12 (stereo in doubt) [Compound I-10, N-((1S,3R)-3-((5-cyano-4-(5-(trifluoromethyl)-1H-pyrrolo[2,3-b]pyridin-3-yl)pyrimidin-2-yl)amino)cyclohexyl)cyclopropanecarboxamide] | – | – | < 3.3 µM | < 3.3 µM
13 | O=C(N[C@@H]1CCC[C@H](Nc2nc(-c3c[nH]c4ncc(F)cc34)c(C(F)(F)F)cc2F)C1)N1CCCC1 (stereo in doubt) [Compound I-20, N-((1R,3S)-3-((3-fluoro-6-(5-fluoro-1H-pyrrolo[2,3-b]pyridin-3-yl)-5-(trifluoromethyl)-pyridin-2-yl)amino)cyclohexyl)pyrrolidine-1-carboxamide] | – | – | < 3.3 µM | < 3.3 µM
14 | N#Cc1cnc(N[C@H]2CCCC[C@@H]2C(=O)O)nc1-c1c[nH]c2ncc(Cl)cc12 [Compound I-1, (1S,2S)-2-((4-(5-chloro-1H-pyrrolo[2,3-b]pyridin-3-yl)-5-cyanopyrimidine-2-yl)amino)-cyclohexanecarboxylic acid] | – | – | < 3.3 µM | < 3.3 µM
15 | N#Cc1cnc(N[C@H]2CCC[C@@H](C(=O)O)C2)nc1-c1c[nH]c2ncc(Cl)cc12 [Compound I-3, (1R,3S)-3-((4-(5-chloro-1H-pyrrolo[2,3-b]pyridin-3-yl)-5-cyanopyrimidine-2-yl)amino)-cyclohexanecarboxylic acid] | – | – | < 3.3 µM | < 3.3 µM
16 | N#Cc1cnc(N[C@H]2CCC[C@@H](C(=O)O)C2)nc1-c1c[nH]c2ncc(C(F)(F)F)cc12 [Compound I-4, (1R,3S)-3-((5-cyano-4-(5-(trifluoromethyl)-1H-pyrrolo[2,3-b]pyridin-3-yl)pyrimidin-2-yl)amino)cyclohexanecarboxylic acid] | – | – | < 3.3 µM | < 3.3 µM
17 | N#Cc1cnc(N[C@H]2CCC[C@@H](C(=O)O)C2)nc1-c1c[nH]c2ncccc12 [Compound I-5] | – | – | ≥ 3.3 µM | –
18 | CC1(C(=O)N[C@@H]2CCC[C@H](Nc3ncc(C#N)c(-c4c[nH]c5ncc(C(F)(F)F)cc45)n3)C2)CC1 [Compound I-6, N-((1R,3S)-3-((5-cyano-4-(5-(trifluoromethyl)-1H-pyrrolo[2,3-b]pyridin-3-yl)pyrimidin-2-yl)amino)cyclohexyl)-1-methylcyclopropanecarboxamide] | – | – | < 3.3 µM | < 3.3 µM
19 | N#Cc1cnc(N[C@H]2CCCC[C@@H]2C(=O)O)nc1-c1c[nH]c2ncc(C(F)(F)F)cc12 [Compound I-7, (1S,2S)-2-((5-cyano-4-(5-(trifluoromethyl)-1H-pyrrolo[2,3-b]pyridin-3-yl)pyrimidin-2-yl)amino)cyclohexanecarboxylic acid] | – | – | < 3.3 µM | < 3.3 µM
20 | CC[C@]1(C(=O)O)CCCC[C@@H]1Nc1ncc(C#N)c(-c2c[nH]c3ncc(C(F)(F)F)cc23)n1 [Compound I-8, (1S,2S)-2-((5-cyano-4-(5-(trifluoromethyl)-1H-pyrrolo[2,3-b]pyridin-3-yl)pyrimidin-2-yl)amino)-1-ethylcyclohexanecarboxylic acid] | – | – | < 3.3 µM | < 3.3 µM
21 | COCC(=O)N[C@@H]1CCC[C@H](Nc2ncc(C#N)c(-c3c[nH]c4ncc(C(F)(F)F)cc34)n2)C1 [Compound I-9, N-((1R,3S)-3-((5-cyano-4-(5-(trifluoromethyl)-1H-pyrrolo[2,3-b]pyridin-3-yl)pyrimidin-2-yl)amino)cyclohexyl)-2-methoxyacetamide] | – | – | < 3.3 µM | < 3.3 µM
22 | N#Cc1cc(F)c(N[C@H]2CCC[C@@H](NC(=O)N3CCOCC3)C2)nc1-c1c[nH]c2ncc(Cl)cc12 [Compound I-11, N-((1R,3S)-3-((6-(5-chloro-1H-pyrrolo[2,3-b]pyridin-3-yl)-5-cyano-3-fluoro-pyridin-2-yl)amino)cyclohexyl)morpholine-4-carboxamide] | – | – | < 3.3 µM | < 3.3 µM
23 | N#Cc1cc(F)c(N[C@H]2CCC[C@@H](NC(=O)N3CCOCC3)C2)nc1-c1c[nH]c2ncc(F)cc12 [Compound I-12, N-((1R,3S)-3-((5-cyano-3-fluoro-6-(5-fluoro-1H-pyrrolo[2,3-b]pyridin-3-yl)pyridin-2-yl)amino)cyclohexyl)morpholine-4-carboxamide] | – | – | < 3.3 µM | < 3.3 µM
24 | NC(=O)c1cc(F)c(N[C@H]2CCC[C@@H](NC(=O)N3CCOCC3)C2)nc1-c1c[nH]c2ncc(F)cc12 [Compound I-13, N-((1R,3S)-3-((5-carbamoyl-3-fluoro-6-(5-fluoro-1H-pyrrolo[2,3-b]pyridin-3-yl)pyridin-2-yl)amino)cyclohexyl)morpholine-4-carboxamide] | – | – | < 3.3 µM | < 3.3 µM
25 | N#Cc1cc(F)c(N[C@H]2CCC[C@@H](NC(=O)N3CC[C@@H](F)C3)C2)nc1-c1c[nH]c2ncc(F)cc12 [Compound I-14, (R)—N-((1R,3S)-3-((5-cyano-3-fluoro-6-(5-fluoro-1H-pyrrolo[2,3-b]pyridin-3-yl)pyridin-2-yl)amino)cyclohexyl)-3-fluoropyrrolidine-1-carboxamide] | – | – | < 3.3 µM | < 3.3 µM
26 | O=C(N[C@@H]1CCC[C@H](Nc2nc(-c3c[nH]c4ncc(F)cc34)c(F)cc2F)C1)N1CCCC1 [Compound I-15, N-((1R,3S)-3-((3,5-difluoro-6-(5-fluoro-1H-pyrrolo[2,3-b]pyridin-3-yl)pyridin-2-yl)amino)cyclohexyl)pyrrolidine-1-carboxamide] | – | – | < 3.3 µM | < 3.3 µM
27 | C[C@@H]1CCN(C(=O)N[C@@H]2CCC[C@H](Nc3nc(-c4c[nH]c5ncc(F)cc45)c(F)cc3F)C2)C1 [Compound I-16, (R)—N-((1R,3S)-3-((3,5-difluoro-6-(5-fluoro-1H-pyrrolo[2,3-b]pyridin-3-yl)-pyridin-2-yl)amino)cyclohexyl)-3-methylpyrrolidine-1-carboxamide] | – | – | < 3.3 µM | < 3.3 µM
28 | O=C(O)[C@@H]1C2CCC(CC2)[C@H]1Nc1nc(-c2c[nH]c3ncc(F)cc23)c(F)cc1F [Compound I-27] | – | < 3.3 µM | – | –
29 | (+/−)-(exo)-7-((3,5-difluoro-6-(5-fluoro-1H-pyrrolo[2,3-b]pyridin-3-yl)pyridin-2-yl)amino)bicyclo[3.2.2]nonane-6-carboxylic acid [Compound I-36] | – | < 3.3 µM | – | –
